Results from paper doi:10.1101/2025.03.31.646177v2, “Target engagement studies and kinetic live-cell degradation assays enable the systematic characterization of HDAC6 PROTACs” (biorxiv, 2025).

Tests used:
[1] = target: T1, HDAC6-HiBiT (endogenously tagged HDAC6 in HeLa HDAC6-HiBiT LgBiT cells) (Homo sapiens, UniProt Q9UBN7); assay: NanoBRET saturation binding; assay type: cell-based
T1 sequence (Q9UBN7 1-1215): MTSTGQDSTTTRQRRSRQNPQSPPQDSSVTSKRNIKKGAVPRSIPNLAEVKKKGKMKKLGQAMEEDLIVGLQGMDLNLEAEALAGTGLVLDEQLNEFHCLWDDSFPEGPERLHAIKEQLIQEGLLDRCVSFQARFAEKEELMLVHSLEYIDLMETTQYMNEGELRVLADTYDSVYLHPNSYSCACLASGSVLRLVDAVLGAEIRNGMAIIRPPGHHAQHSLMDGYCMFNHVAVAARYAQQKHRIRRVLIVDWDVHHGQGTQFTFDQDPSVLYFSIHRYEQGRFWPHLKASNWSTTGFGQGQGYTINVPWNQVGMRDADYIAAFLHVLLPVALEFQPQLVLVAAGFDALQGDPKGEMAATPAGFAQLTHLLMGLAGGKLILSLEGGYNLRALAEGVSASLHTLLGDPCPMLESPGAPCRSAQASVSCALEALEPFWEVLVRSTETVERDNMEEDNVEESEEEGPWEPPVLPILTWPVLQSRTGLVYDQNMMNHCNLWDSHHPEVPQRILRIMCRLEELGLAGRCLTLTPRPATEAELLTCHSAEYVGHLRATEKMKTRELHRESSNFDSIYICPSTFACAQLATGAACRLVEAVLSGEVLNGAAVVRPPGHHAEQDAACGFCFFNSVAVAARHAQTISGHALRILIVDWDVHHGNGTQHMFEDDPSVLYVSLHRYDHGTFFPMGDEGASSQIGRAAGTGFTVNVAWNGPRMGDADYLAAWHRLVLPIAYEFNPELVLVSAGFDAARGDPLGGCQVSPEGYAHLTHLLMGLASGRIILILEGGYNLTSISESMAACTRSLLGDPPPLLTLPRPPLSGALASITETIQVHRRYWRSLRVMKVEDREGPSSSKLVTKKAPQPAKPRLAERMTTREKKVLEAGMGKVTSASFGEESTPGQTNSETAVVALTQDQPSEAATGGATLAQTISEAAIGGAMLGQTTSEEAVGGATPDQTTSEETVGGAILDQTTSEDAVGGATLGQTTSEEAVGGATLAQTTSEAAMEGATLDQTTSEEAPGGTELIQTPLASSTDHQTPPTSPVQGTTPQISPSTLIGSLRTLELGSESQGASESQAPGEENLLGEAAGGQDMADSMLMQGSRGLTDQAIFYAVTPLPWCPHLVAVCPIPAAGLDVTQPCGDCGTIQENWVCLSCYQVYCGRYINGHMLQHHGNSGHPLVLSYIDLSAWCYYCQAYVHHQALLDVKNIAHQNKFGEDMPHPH

[2] = target: T2, HDAC6 (human recombinant) (Homo sapiens, UniProt Q9UBN7); assay: fluorogenic HDAC assay (ZMAL substrate, trypsin-coupled); assay type: biochemical
T2 sequence (Q9UBN7 1-1215): T1 sequence (Q9UBN7 1-1215)
Text: fluorogenic HDAC assay (ZMAL substrate, trypsin-coupled) on HDAC6 (human recombinant)

[3] = target: HDAC1 (human recombinant) (Homo sapiens, UniProt Q13547); assay: as above; assay type: biochemical
HDAC1 (human recombinant), sequence (Q13547 whole entry): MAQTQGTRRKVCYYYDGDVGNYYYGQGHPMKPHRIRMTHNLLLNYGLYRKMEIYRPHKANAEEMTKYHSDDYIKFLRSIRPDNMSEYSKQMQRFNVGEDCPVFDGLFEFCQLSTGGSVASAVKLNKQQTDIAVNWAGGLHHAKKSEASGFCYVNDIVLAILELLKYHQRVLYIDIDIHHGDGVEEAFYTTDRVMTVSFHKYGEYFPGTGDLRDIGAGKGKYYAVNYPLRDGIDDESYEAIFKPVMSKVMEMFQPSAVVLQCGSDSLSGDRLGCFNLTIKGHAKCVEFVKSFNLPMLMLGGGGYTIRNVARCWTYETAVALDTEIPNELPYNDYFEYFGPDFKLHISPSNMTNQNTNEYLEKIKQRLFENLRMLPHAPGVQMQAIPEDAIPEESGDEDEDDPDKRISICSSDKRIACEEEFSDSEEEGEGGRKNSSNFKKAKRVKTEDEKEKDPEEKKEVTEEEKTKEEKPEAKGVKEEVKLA
Text: fluorogenic HDAC assay (ZMAL substrate, trypsin-coupled) on HDAC1 (human recombinant)

[4] = target: HDAC2 (human recombinant) (Homo sapiens, UniProt Q92769); assay: as above; assay type: biochemical
HDAC2 (human recombinant), sequence (Q92769 whole entry): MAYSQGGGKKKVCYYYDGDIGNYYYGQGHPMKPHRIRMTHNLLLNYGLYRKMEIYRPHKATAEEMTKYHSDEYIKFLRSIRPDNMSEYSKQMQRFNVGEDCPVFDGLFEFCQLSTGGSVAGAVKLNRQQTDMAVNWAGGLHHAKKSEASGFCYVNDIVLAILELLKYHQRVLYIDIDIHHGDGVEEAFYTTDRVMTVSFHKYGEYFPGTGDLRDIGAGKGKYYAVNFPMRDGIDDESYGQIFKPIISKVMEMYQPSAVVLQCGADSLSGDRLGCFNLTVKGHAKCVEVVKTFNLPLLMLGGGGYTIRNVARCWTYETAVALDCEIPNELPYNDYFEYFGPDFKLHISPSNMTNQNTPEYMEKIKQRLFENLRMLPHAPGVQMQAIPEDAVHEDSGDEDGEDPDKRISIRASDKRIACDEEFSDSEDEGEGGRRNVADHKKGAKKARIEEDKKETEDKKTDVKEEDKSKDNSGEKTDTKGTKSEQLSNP
Text: fluorogenic HDAC assay (ZMAL substrate, trypsin-coupled) on HDAC2 (human recombinant)

[5] = target: T1, HDAC6-HiBiT (endogenously tagged HDAC6 in HeLa HDAC6-HiBiT LgBiT cells); assay: NanoBRET competition with tracer […]; assay type: cell-based

| Kd [1] [nM] | IC50 [2] [nM] | IC50 [3] [nM] | IC50 [4] [nM] | IC50 [5] [nM] | Structure (SMILES) |
| --- | --- | --- | --- | --- | --- |
| 80 ± 11 | 9.1 ± 0.1 | 130 ± 20 | 220 ± 10 |  | CN(C)c1ccc2c(-c3ccc(C(=O)NCCCn4cc(COc5ccc(C(=O)NCCCCCCC(=O)NO)cc5)nn4)cc3C(=O)[O-])c3ccc(=[N+](C)C)cc-3oc2c1 [compound 5, 2-[6-(Dimethylamino)-3-(dimethyliminio)-3H-xanthen-9-yl]-5-[(3-{4-[(4-{[7-(hydroxyamino)-7-oxoheptyl]carbamoyl}phenoxy)methyl]-1H-1,2,3-triazol-1-yl}propyl)carbamoyl]benzoate] |
| 120 ± 40 | 18 ± 1 | 200 ± 20 | 340 ± 40 |  | CN(C)c1ccc2c(-c3ccc(C(=O)NCCOCCOCCOCCn4cc(COc5ccc(C(=O)NCCCCCCC(=O)NO)cc5)nn4)cc3C(=O)[O-])c3ccc(N(C)C)cc3[o+]c2c1 [compound 4, tracer 4] |
|  |  |  |  | 75 ± 30 | FC(F)c1nnc(-c2cnc(NCc3ccccc3)nc2)o1 [BK1] |
